Test results as given in the supplement of paper PMC13380429.
± gives the standard deviation of the averaged measurements.

Assays:
Details in all cases: 72 h
Vero E6 [1] = test: drug sensitivity score (DSS) for viability; higher = more toxic; extreme values may be limits of the assay
Caco-2 [2] = test: as above
Calu-3 [3] = test: as above
U2OS [4] = test: as above
HepG2 [5] = test: as above
Vero E6 [6] = test: cell viability relative to DMSO; higher = less toxic
Caco-2 [7] = test: as above
Calu-3 [8] = test: as above
U2OS [9] = test: as above
HepG2 [10] = test: as above
Vero E6 [11] = test: relative viability EC50 (midpoint between 100% and the lowest measured viability); higher = less toxic
Caco-2 [12] = test: as above
Calu-3 [13] = test: as above
U2OS [14] = test: as above
HepG2 [15] = test: as above

Row | Compound | drug sensitivity score (Vero E6 [1]) | drug sensitivity score (Caco-2 [2]) | drug sensitivity score (Calu-3 [3]) | drug sensitivity score (U2OS [4]) | drug sensitivity score (HepG2 [5]) | cell viability (Vero E6 [6]; 1 nM) | cell viability (Vero E6 [6]; 10 nM) | cell viability (Vero E6 [6]; 100 nM) | cell viability (Vero E6 [6]; 1000 nM) | cell viability (Vero E6 [6]; 10000 nM) | cell viability (Caco-2 [7]; 1 nM) | cell viability (Caco-2 [7]; 10 nM) | cell viability (Caco-2 [7]; 100 nM) | cell viability (Caco-2 [7]; 1000 nM) | cell viability (Caco-2 [7]; 10000 nM) | cell viability (Calu-3 [8]; 1 nM) | cell viability (Calu-3 [8]; 10 nM) | cell viability (Calu-3 [8]; 100 nM) | cell viability (Calu-3 [8]; 1000 nM) | cell viability (Calu-3 [8]; 10000 nM) | cell viability (U2OS [9]; 1 nM) | cell viability (U2OS [9]; 10 nM) | cell viability (U2OS [9]; 100 nM) | cell viability (U2OS [9]; 1000 nM) | cell viability (U2OS [9]; 10000 nM) | cell viability (HepG2 [10]; 1 nM) | cell viability (HepG2 [10]; 10 nM) | cell viability (HepG2 [10]; 100 nM) | cell viability (HepG2 [10]; 1000 nM) | cell viability (HepG2 [10]; 10000 nM) | relative viability EC50 (Vero E6 [11]) | relative viability EC50 (Caco-2 [12]) | relative viability EC50 (Calu-3 [13]) | relative viability EC50 (U2OS [14]) | relative viability EC50 (HepG2 [15])
1 | N=C(N)NC(=N)Nc1cccc(Cl)c1 [m-chlorophenylbiguanide] | 0 | 0 | 0 | 0 | 0 | 100% | 101% | 95.9% | 101% | 96.9% | 101% | 92.2% | 100% | 101% | 97.1% | 108% | 94.7% | 106% | 98% | 116% | 94.3% | 98.9% | 103% | 95.9% | 101% | 112% | 106% | 102% | 105% | 99.2% | > 10 µM | > 10 µM | > 10 µM | > 10 µM | > 10 µM
2 | CCCc1ncc(C[n+]2ccccc2C)c(N)n1 [amprolium] | 0 | 0.9 | 0 | 0 | 0 | 100% | 108% | 92.8% | 112% | 102% | 112% | 94.9% | 88.5% | 90.5% | 99.9% | 104% | 97.2% | 99.5% | 101% | 107% | 101% | 97.2% | 102% | 100% | 104% | 96.4% | 103% | 89.2% | 97.1% | 92.1% | > 10 µM | > 10 µM | > 10 µM | > 10 µM | > 10 µM
3 | CN(C)Cc1ccc(S(=O)(=O)n2ccc(/C=C/C(=O)NO)c2)cc1 [resminostat] | 8.4 | 5.1 | 6.2 | 7.2 | 9.1 | 106% | 103% | 101% | 82.1% | 2% | 99.6% | 101% | 103% | 98.4% | 12.4% | 102% | 96.3% | 92.9% | 86.2% | 27.9% | 95.2% | 105% | 97.9% | 88.1% | 5.5% | 110% | 110% | 94% | 69.2% | 7.9% | 1.81 µM | 3.03 µM | 1.77 µM | 2.14 µM | 1.38 µM
4 | C[C@H](Nc1ncnc2[nH]cnc12)c1cc2ccc(F)cc2nc1-c1ccccn1 [AMG319] | 0.75 ± 0.35 | 0.2 ± 0.28 | 0 | 0 | 0 | 98.8 ± 3.9% | 97.8 ± 0.85% | 98.5 ± 1.2% | 92.2 ± 2.3% | 83.7 ± 4.1% | 100 ± 4.2% | 104 ± 6.4% | 98.5 ± 1.3% | 93.4 ± 5.8% | 95 ± 13% | 103 ± 0.64% | 97.2 ± 1.3% | 108 ± 8.1% | 100 ± 13% | 96.5 ± 2.5% | 99% | 101% | 98.3% | 102% | 101% | 103 ± 2.3% | 96.5 ± 11% | 115 ± 5% | 97.8 ± 6.2% | 99.3 ± 5.4% | > 10 µM | > 10 µM | > 10 µM | > 10 µM | > 10 µM
5 | NC(=O)OCC(O)COc1ccc(Cl)cc1 (centres undefined) [chlorphensin-carbamate] | 0 | 0 | 0 | 0 | 0 | 110% | 95.5% | 105% | 96.5% | 103% | 100% | 109% | 92% | 117% | 93.3% | 92.6% | 96.3% | 91.6% | 85.5% | 94.2% | 99.6% | 99% | 96.3% | 98.2% | 94.3% | 91.7% | 97% | 100% | 100% | 100% | > 10 µM | > 10 µM | > 10 µM | > 10 µM | > 10 µM
6 | CS(=O)(=O)c1ccc(-c2cnc(N)c(C(=O)Nc3ccccc3)n2)cc1 [VE-821] | 0 | 0 | 0 | 0 | 0.4 | 99.1% | 95.7% | 97.1% | 98% | 94% | 102% | 94.8% | 101% | 95.1% | 97.4% | 99.1% | 94.7% | 102% | 95.1% | 95.3% | 102% | 95.7% | 96.9% | 93.1% | 91.6% | 97.3% | 99.3% | 95% | 98.6% | 84.2% | > 10 µM | > 10 µM | > 10 µM | > 10 µM | > 10 µM
7 | COC(c1ccccc1)(c1ccccc1)[C@H](Oc1nc(C)cc(C)n1)C(=O)O [ambrisentan] | 0 | 0 | 2.7 | 0 | 0 | 99.9% | 99.1% | 94.4% | 97.4% | 102% | 104% | 98.2% | 95.1% | 97.1% | 90.5% | 105% | 101% | 84.6% | 88.9% | 97% | 101% | 101% | 94.2% | 99.5% | 95.7% | 102% | 98.4% | 95.3% | 107% | 98.3% | > 10 µM | > 10 µM | > 10 µM | > 10 µM | > 10 µM
8 | C#C[C@]1(OC(C)=O)CC[C@H]2[C@@H]3CCC4=CC(=NO)CC[C@@H]4[C@H]3CC[C@@]21CC (mixture of isomers) [norgestimate] | 0 | 0 | 0 | 0 | 0 | 99% | 94% | 99.2% | 99.6% | 102% | 98.3% | 87.7% | 73.4% | 93% | 92.4% | 98.6% | 104% | 102% | 106% | 104% | 97% | 104% | 94.3% | 99.6% | 96.2% | 108% | 97.6% | 107% | 91.3% | 111% | > 10 µM | > 10 µM | > 10 µM | > 10 µM | > 10 µM
9 | CCCCCCCCCCCCOS(=O)(=O)O [dodecyl-sulfate] | 0 | 0.05 ± 0.071 | 0 | 0 | 0 | 100 ± 5.2% | 102 ± 7.9% | 95.7 ± 5.3% | 104 ± 1.7% | 101 ± 6.7% | 101 ± 8.6% | 99.5 ± 16% | 102 ± 3.1% | 99.2 ± 3.1% | 106 ± 27% | 106 ± 17% | 94.5 ± 9% | 103 ± 4.2% | 90.5 ± 6.3% | 106 ± 3.5% | 100 ± 4.9% | 93.5 ± 0.28% | 102 ± 4% | 91.7 ± 0.28% | 100 ± 4.6% | 106 ± 15% | 106 ± 12% | 102 ± 7% | 99.6 ± 5.7% | 92.1 ± 3.1% | > 10 µM | > 10 µM | > 10 µM | > 10 µM | > 10 µM
10 | Cc1nc(C#Cc2ccnc(Cl)c2)c(C)n1-c1ccc(F)cc1 [basimglurant] | 0 | 3 | 0 | 0 | 1.4 | 106% | 101% | 96.9% | 102% | 91.3% | 101% | 95.2% | 101% | 90.5% | 66.5% | 88.4% | 90.6% | 92.2% | 92.4% | 95.8% | 91.4% | 96.1% | 101% | 91.9% | 93.2% | 104% | 99.5% | 102% | 95.3% | 77.4% | > 10 µM |  | > 10 µM | > 10 µM | > 10 µM
11 | CC(C(=O)O)c1ccc2c(c1)Cc1ccccc1-2 (centres undefined) [cicloprofen] | 0 | 0 | 0 | 0 | 0 | 104% | 101% | 101% | 93.8% | 101% | 96.8% | 97.9% | 99.9% | 102% | 107% | 95.4% | 103% | 97.6% | 93.7% | 90.5% | 96.9% | 98% | 94.4% | 98.5% | 106% | 101% | 93.7% | 106% | 95.7% | 112% | > 10 µM | > 10 µM | > 10 µM | > 10 µM | > 10 µM
12 | C[C@]12CCC(=O)C[C@@H]1CC[C@@H]1[C@@H]2CC[C@]2(C)[C@@H](O)CC[C@@H]12 [Dihydrotestosterone] | 0 | 0 | 0 | 0 | 0 | 106% | 99.3% | 101% | 100% | 104% | 108% | 93.1% | 103% | 102% | 97.5% | 97.6% | 99.9% | 101% | 98.9% | 94.3% | 98.2% | 104% | 94.8% | 103% | 98.9% | 112% | 95.8% | 99.3% | 106% | 95.3% | > 10 µM | > 10 µM | > 10 µM | > 10 µM | > 10 µM
13 | CCCCC(=O)O[C@]1(C(=O)CO)CC[C@H]2[C@@H]3CCC4=CC(=O)CC[C@]4(C)[C@H]3[C@@H](O)C[C@@]21C [hydrocortisone-valerate] | 0 | 0 | 0 | 0 | 0 | 107% | 105% | 101% | 98.5% | 101% | 103% | 99% | 88% | 109% | 99.3% | 87.3% | 97.1% | 86.5% | 95.9% | 103% | 95.5% | 97.1% | 92.5% | 100% | 93.2% | 103% | 97% | 101% | 96.5% | 103% | > 10 µM | > 10 µM | > 10 µM | > 10 µM | > 10 µM
14 | Oc1ccc(Cl)cc1 [parachlorophenol] | 0 | 0 | 0 | 0 | 0 | 100% | 101% | 99.3% | 97.7% | 99.7% | 94.2% | 91.5% | 99.7% | 90.4% | 100% | 102% | 100% | 98.9% | 91.2% | 104% | 98.5% | 96.5% | 97.2% | 95.4% | 102% | 108% | 99.1% | 90.9% | 111% | 98.4% | > 10 µM | > 10 µM | > 10 µM | > 10 µM | > 10 µM
